Test results reported in publication PMC4746011, “IspH–RPS1 and IspH–UbiA: “Rosetta stone” proteins” (Chemical Science, 2015).
Where two headings read alike, the source gives them in different places.

B1: CthIspH–RPS1 (Acetivibrio thermocellus ATCC 27405) (protein)
chain: MEIIVAKSAGFCFGVSNAVKTVNNLLENQKEPIYTYGPIIHNAQVVDLFTSKGVKKIDDIDEAEPNGHIVIRAHGVTPDIYKKISDKGLILEDATCPYVKKIHNLVKEKSEEGYKIIIVGDRNHPEVIGINGWCNNQAYIVDSVDDVEKFPTSDEKVCVVAQTTITNEKWLEVNTALKKKFKNILKFDTICSATSRRQNEAEEIAKNVDMMIIIGGKNSSNTQKLYDICKKHCNLTYKIETSGDLPPVDIKKIKKVGISAGASTPDWVIEEVIKKMSELNKQGMVDILENDGEIDFANAFENSFVRIHAGDTVKGKIIGFNSNEVFVDLGYKADGIIPLEEYTDDPNFNIEKEVKIGEEVEVLVEMVNDGEGNVRLSKRKVDAIKSWDDIVKAYENKTPVNAYVVEVVKGGVIASYKGVRIFVPASQVSDRYVKDLNEFLKRSITVRILELNEKRRKVVGSARVIIEEEKEALANRTWNSMEVGKVFKGTVKSLTDFGAFVDIGGVDGLIHISELSWTRVKHPSEVLKVGDEVEVTVLEFDKEKKKVSLGYRKMEDNPWYKIEEKYKVGDVVKVTVLRFAPFGAFVELEKGVDGLVHISQISSKRLAKVEDALEIGMKVDAKIIEVDGENKKISLSIKEVMPIDPPSSKSESKAKDGSEAKETSANTEEEAEPTEHREDMNVTVEDLVSKTTQS

What was measured:
[1] = molecular target: T1, CthIspH–RPS1 (Acetivibrio thermocellus (Clostridium thermocellum), UniProt A3DDC0); experiment: CthIspH–RPS1 inhibition assay (methyl viologen method); format: biochemical; as to IC50 against CthIspH–RPS1: 40 nM enzyme, 50 µM HMBPP, 40 µM dithionite
Protocol: (§1) The CthIspH kinetics and inhibition assays were performed by using the methyl viologen method described previously.[27] […] The reactions were monitored at 606 nm. K m and k cat were fitted by using a Michaelis–Menten relation in Origin 9.1. The extinction coefficient for the methyl viologen radical cation at 606 nm was taken to be 13 700 M^–1 cm^–1.[28]

[2] = system: AaIspH; design: method as in PMID 24481599, PMID 20426416; settings: Fig. 5a bottom value; read-out: IC50 against AaIspH; cited from earlier work
[3] = system: IspH from the thermophile Aquifex aeolicus; design: method as in PMID 24481599; settings: A. aeolicus IspH; cited from earlier work
[4] = molecular target: T1, CthIspH–RPS1; experiment: CthIspH–RPS1 Michaelis–Menten kinetics (methyl viologen assay); format: biochemical; settings: substrate HMBPP, room temperature
Protocol: as §1
Substrate consumption and product formation were also confirmed by LC-MS (Fig. S3 ^†) and NMR analysis.

[5] = substrate: C/C(=C\COP(=O)(O)OP(=O)(O)O)CO; experiment: purified protein, by the assay type; settings: other: substrate HMBPP, room temperature
[6] = read-out: IC50 against CthIspH–RPS1

Molecule	IC50 [1, 6] [µM]	further results
C#CCOP(=O)(O)OP(=O)(O)O [Compound 4]	8.8	–
C#CCCOP(=O)(O)OP(=O)(O)O [Compound 5]	3.3	IC50 [2]: 0.45 µM
C#CCCCOP(=O)(O)OP(=O)(O)O [Compound 6]	47	–
O=P(O)(O)OP(=O)(O)OCc1cccnc1 [Compound 7]	150	–
O=P(O)(O)OP(=O)(O)OCCc1cccnc1 [Compound 8]	240	–
O=P(O)(O)OP(=O)(O)OCCCc1cccnc1 [Compound 9]	490	–
O=P(O)(O)OP(=O)(O)OCc1ccncc1 [Compound 10]	120	–
O=P(O)(O)OP(=O)(O)OCC#CCO [Compound 11]	92	–
CC#CCOP(=O)(O)OP(=O)(O)O [Compound 12]	760	–
O=P(O)(O)OP(=O)(O)SCC#CCO [Compound 13, 4-Hydroxybut-2-ynyl-S-thiolodiphosphate]	–	IC50 [1]: 3.8 µM; activity against CthIspH–RPS1 (in words) ([1]; inhibition of catalytic activity): very active
C/C(=C\COP(=O)(O)OP(=O)(O)O)CO [HMBPP, (E)-1-hydroxy-2-methyl-but-2-enyl 4-diphosphate]	–	Km [3]: 7 µM; kcat [3]: 1.0 s^–1; kcat [4]: 56 min^–1
B1	–	Km [5]: 15 µM
